Experimental data from PubChem BioAssay (NCI).
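Grown in 96-well plates, cells were treated for 48 hours with each compound at five concentrations. Insufficient inhibition: endpoint recorded as highest concentration tested. Here, GI50 denotes the concentration required for 50% inhibition of growth. TGI: concentration producing complete growth inhibition.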

Assays:
Test in all cases: DTP human tumour cell line panel, 48 h
786-0 renal = tested on: 786-0 renal
A498 renal = tested on: A498 renal
A549 NSCLC = tested on: A549 NSCLC
BT-549 breast = tested on: BT-549 breast
CAKI-1 renal = tested on: CAKI-1 renal
CCRF-CEM leukemia = tested on: CCRF-CEM leukemia
COLO 205 colon = tested on: COLO 205 colon
DU-145 prostate = tested on: DU-145 prostate
EKVX NSCLC = tested on: EKVX NSCLC
HCC-2998 colon = tested on: HCC-2998 colon
HCT-116 colon = tested on: HCT-116 colon
HCT-15 colon = tested on: HCT-15 colon
HL-60(TB) leukemia = tested on: HL-60(TB) leukemia
HOP-62 NSCLC = tested on: HOP-62 NSCLC
HOP-92 NSCLC = tested on: HOP-92 NSCLC
HS 578T breast = tested on: HS 578T breast
HT29 colon = tested on: HT29 colon
IGROV1 ovarian = tested on: IGROV1 ovarian
K-562 leukemia = tested on: K-562 leukemia
KM12 colon = tested on: KM12 colon
M14 melanoma = tested on: M14 melanoma
MALME-3M melanoma = tested on: MALME-3M melanoma
MCF7 breast = tested on: MCF7 breast
MDA-MB-231 breast = tested on: MDA-MB-231 breast
MDA-MB-435 = tested on: MDA-MB-435
MOLT-4 leukemia = tested on: MOLT-4 leukemia
NCI-H226 lung = tested on: NCI-H226 lung
NCI-H23 lung = tested on: NCI-H23 lung
NCI-H460 lung = tested on: NCI-H460 lung
NCI-H522 lung = tested on: NCI-H522 lung
NCI/ADR-RES ovarian = tested on: NCI/ADR-RES ovarian
OVCAR-4 ovarian = tested on: OVCAR-4 ovarian
OVCAR-5 ovarian = tested on: OVCAR-5 ovarian
OVCAR-8 ovarian = tested on: OVCAR-8 ovarian
PC-3 prostate = tested on: PC-3 prostate
RXF 393 renal = tested on: RXF 393 renal
SF-268 CNS = tested on: SF-268 CNS
SF-539 CNS = tested on: SF-539 CNS
SK-MEL-2 melanoma = tested on: SK-MEL-2 melanoma
SK-MEL-28 melanoma = tested on: SK-MEL-28 melanoma
SK-MEL-5 melanoma = tested on: SK-MEL-5 melanoma
SK-OV-3 ovarian = tested on: SK-OV-3 ovarian
SN12C renal = tested on: SN12C renal
SNB-19 CNS = tested on: SNB-19 CNS
SNB-75 CNS = tested on: SNB-75 CNS
SR leukemia = tested on: SR leukemia
SW-620 colon = tested on: SW-620 colon
T-47D breast = tested on: T-47D breast
TK-10 renal = tested on: TK-10 renal
U251 CNS = tested on: U251 CNS
UACC-257 melanoma = tested on: UACC-257 melanoma
UACC-62 melanoma = tested on: UACC-62 melanoma
UO-31 renal = tested on: UO-31 renal

SMILES: C#CCNC1CCC(c2csc(C#C)n2)=C1C (stereo unspecified)
- GI50 (786-0 renal): 195 nM
- TGI (786-0 renal): 368 nM
- GI50 (A498 renal): 3.9 µM
- TGI (A498 renal): 17.6 µM
- GI50 (A549 NSCLC): 10.3 µM
- TGI (A549 NSCLC): > 100 µM
- GI50 (BT-549 breast): 1800 nM
- TGI (BT-549 breast): 3.58 µM
- GI50 (CAKI-1 renal): 2110 nM
- TGI (CAKI-1 renal): 11.5 µM
- GI50 (CCRF-CEM leukemia): 922 nM
- TGI (CCRF-CEM leukemia): 4.94 µM
- GI50 (COLO 205 colon): 17.1 µM
- TGI (COLO 205 colon): 39.1 µM
- GI50 (DU-145 prostate): 5.97 µM
- TGI (DU-145 prostate): > 100 µM
- GI50 (EKVX NSCLC): 2510 nM
- TGI (EKVX NSCLC): 46.9 µM
- GI50 (HCC-2998 colon): 13.3 µM
- TGI (HCC-2998 colon): 28.6 µM
- GI50 (HCT-116 colon): 4.79 µM
- TGI (HCT-116 colon): 70.1 µM
- GI50 (HCT-15 colon): 6.66 µM
- TGI (HCT-15 colon): 22.7 µM
- GI50 (HL-60(TB) leukemia): 2300 nM
- TGI (HL-60(TB) leukemia): 5.29 µM
- GI50 (HOP-62 NSCLC): 1890 nM
- TGI (HOP-62 NSCLC): 4.98 µM
- GI50 (HOP-92 NSCLC): 1210 nM
- TGI (HOP-92 NSCLC): 2910 nM
- GI50 (HS 578T breast): 2990 nM
- TGI (HS 578T breast): 36.6 µM
- GI50 (HT29 colon): 2880 nM
- TGI (HT29 colon): 10.3 µM
- GI50 (IGROV1 ovarian): 183 nM
- TGI (IGROV1 ovarian): 391 nM
- GI50 (K-562 leukemia): 3.95 µM
- TGI (K-562 leukemia): > 100 µM
- GI50 (KM12 colon): 9.09 µM
- TGI (KM12 colon): > 100 µM
- GI50 (M14 melanoma): 4.22 µM
- TGI (M14 melanoma): 90.6 µM
- GI50 (MALME-3M melanoma): 1680 nM
- TGI (MALME-3M melanoma): 3.37 µM
- GI50 (MCF7 breast): 3.41 µM
- TGI (MCF7 breast): 18.3 µM
- GI50 (MDA-MB-231 breast): 1560 nM
- TGI (MDA-MB-231 breast): 3.98 µM
- GI50 (MDA-MB-435): 16 µM
- TGI (MDA-MB-435): 67 µM
- GI50 (MOLT-4 leukemia): 5.32 µM
- TGI (MOLT-4 leukemia): 83.8 µM
- GI50 (NCI-H226 lung): 11.4 µM
- TGI (NCI-H226 lung): > 100 µM
- GI50 (NCI-H23 lung): 469 nM
- TGI (NCI-H23 lung): 1870 nM
- GI50 (NCI-H460 lung): 4.65 µM
- TGI (NCI-H460 lung): > 100 µM
- GI50 (NCI-H522 lung): 1830 nM
- TGI (NCI-H522 lung): 3.85 µM
- GI50 (NCI/ADR-RES ovarian): 6.11 µM
- TGI (NCI/ADR-RES ovarian): > 100 µM
- GI50 (OVCAR-4 ovarian): 23.5 µM
- TGI (OVCAR-4 ovarian): > 100 µM
- GI50 (OVCAR-5 ovarian): 4.77 µM
- TGI (OVCAR-5 ovarian): > 100 µM
- GI50 (OVCAR-8 ovarian): 3.06 µM
- TGI (OVCAR-8 ovarian): > 100 µM
- GI50 (PC-3 prostate): 3.79 µM
- TGI (PC-3 prostate): > 100 µM
- GI50 (RXF 393 renal): 2660 nM
- TGI (RXF 393 renal): 9.49 µM
- GI50 (SF-268 CNS): 2590 nM
- TGI (SF-268 CNS): 8.27 µM
- GI50 (SF-539 CNS): 1750 nM
- TGI (SF-539 CNS): 3.28 µM
- GI50 (SK-MEL-2 melanoma): 24.8 µM
- TGI (SK-MEL-2 melanoma): > 100 µM
- GI50 (SK-MEL-28 melanoma): 25.1 µM
- TGI (SK-MEL-28 melanoma): > 100 µM
- GI50 (SK-MEL-5 melanoma): 7.98 µM
- TGI (SK-MEL-5 melanoma): 24.2 µM
- GI50 (SK-OV-3 ovarian): 2570 nM
- TGI (SK-OV-3 ovarian): 7.41 µM
- GI50 (SN12C renal): 3.94 µM
- TGI (SN12C renal): > 100 µM
- GI50 (SNB-19 CNS): 4.33 µM
- TGI (SNB-19 CNS): > 100 µM
- GI50 (SNB-75 CNS): 1050 nM
- TGI (SNB-75 CNS): 2240 nM
- GI50 (SR leukemia): 1300 nM
- TGI (SR leukemia): 8.24 µM
- GI50 (SW-620 colon): 8 µM
- TGI (SW-620 colon): 27.8 µM
- GI50 (T-47D breast): 3.88 µM
- TGI (T-47D breast): > 100 µM
- GI50 (TK-10 renal): > 100 µM
- TGI (TK-10 renal): > 100 µM
- GI50 (U251 CNS): 2300 nM
- TGI (U251 CNS): 6 µM
- GI50 (UACC-257 melanoma): 32.1 µM
- TGI (UACC-257 melanoma): > 100 µM
- GI50 (UACC-62 melanoma): 9.74 µM
- TGI (UACC-62 melanoma): > 100 µM
- GI50 (UO-31 renal): 136 nM
- TGI (UO-31 renal): 306 nM
